Read-outs that look alike come from different tables or passages of the source.
Assays:
in vivo = conditions: in vivo; for Kp uu: rat
Method: The CSF samples collected from cisterna magna in rats were stored at –80°C until analysis by liquid chromatography-tandem mass spectrometry (LC-MS/MS). Before performing the LC-MS/MS analysis, these samples were thawed on ice and mixed with three volumes of acetonitrile. The acetonitrile mixtures were vortexed and centrifuged, and the supernatant was collected. After dilution with mobile phase A (a mixture of 10 mM ammonium formate and formic acid at 100:0.2 (v/v)), the supernatant was injected into the LC-MS/MS system.
(§1) To perform correlation analyses between the observed Kp,uu,brain and Kp,uu,CSF, and the model-based prediction of Kp,uu,brain and Kp,uu,CSF, data from literature information were integrated into the internally obtained data for these assessments (Supplemental Table 2) ([17],[22]–[24],[27]–[33]). When only the total concentrations in plasma, CSF, and brain were available, the total concentration ratio in plasma to CSF or brain (Kp,CSF or Kp,brain, respectively) was estimated, followed by calculation of Kp,uu,CSF or Kp,uu,brain based on Eqs.

[1] = Observed Kp,uu,brain and Kp,uu,CSF in monkeys; conditions: for Kp uu at 6 h: cynomolgus monkey, in vivo
Method: Monkey experiments were conducted internally or at the Drug Safety Research Laboratories in Shin Nippon Biomedical Laboratories via consignment to Axcelead Drug Discovery Partners. […] Detailed dosage regimen for each compound is summarized in Supplemental Table 3. […] Each cassette was assigned to a separate group of monkeys. The vehicle was saline or a mixture of dimethylacetamide and 1,3-butanediol (1:1, v/v). At the end of the 6-h infusion or 1 h after intravenous bolus administration, the monkeys were anesthetized, and whole blood, CSF, and whole brain were collected. Blood was collected using the anticoagulant, heparin sodium, and immediately centrifuged; the plasma was transferred to polypropylene tubes. Then, ketamine hydrochloride (50 mg/mL; 0.2 mL/kg; 10 mg/kg) was intramuscularly administered. CSF was collected after lumbar puncture using a spinal needle (22–25G) and a syringe pre-wetted with 10% CHAPS solution to prevent adsorption of compounds to all the equipment during pretreatment. CSF samples were immediately centrifuged, and the supernatant layers were transferred to polypropylene tubes. […] After collecting the cerebellum, hippocampus, and cerebral cortex from the whole brain, these were washed with cold saline, weighed, and homogenized immediately in 4 volumes of ice-cold 100 mmol/L sodium phosphate buffer. All samples were stored at –80°C until analysis by LC-MS/MS. Each sample (50 μL) was mixed with the working solution (the mixture of dimethyl sulfoxide and acetonitrile (2:8, v/v)), and protein was precipitated by the addition of 150 μL acetonitrile containing the internal standards (5 ng/mL alprenolol and diclofenac). After centrifugation at 5,250 rpm and 4°C for 5 min, the supernatant (150 μL) was transferred to a polypropylene 96-well plate (Corning; Corning, NY, USA) and completely evaporated under a gentle stream of N2. The residue was reconstituted in dilution solution (mobile phase A/B (7:3, v/v)), and the supernatant was analyzed by LC-MS/MS.
Each sample (50 μL) was mixed with the working solution (the mixture of dimethyl sulfoxide and acetonitrile (2:8, v/v)), and the protein was precipitated by adding 150 μL acetonitrile containing internal standards (5 ng/mL alprenolol and diclofenac). After centrifugation at 5250 rpm and 4°C for 5 min, the supernatant (150 μL) was transferred to a polypropylene 96-well plate (Corning) and completely evaporated under a gentle stream of N2. The residue was reconstituted in mobile phase A/B (7:3, v/v)), and the supernatant was analyzed by LC-MS/MS. API5000 and QTRAP5500 (AB SCIEX, Framingham, MA, USA) equipped with Ultra-Fast Liquid Chromatography (Shimadzu, Kyoto, Japan) were used for determination of drug concentrations. Reversed-phase chromatography was performed using Shim-pack XR ODS (2.2 μm, 2.0×30 mm). Mobile phase A consisted of 10 mM ammonium formate with 0.2% formic acid, and mobile phase B contained acetonitrile with 0.2% formic acid. […] The mass spectrometer was operated in the positive ionization mode with multiple reaction monitoring (MRM). The MRM parameters (Q1 ion, Q3 ion, DP, EP, CE, and CXP) for monitoring the compounds are shown in Supplemental Table 4. Data acquisition and processing were performed using Analyst 1.6.2 (AB SCIEX, Framingham, MA, USA).
as §1

[2] = cited from earlier work
BCRP = target: T1, BCRP (Homo sapiens, UniProt Q9UNQ0); experiment: Transcellular transport across MDCK-BCRP cell monolayers (efflux ratio); conditions: dog, pH 7.4
T1 sequence (Q9UNQ0 1-655): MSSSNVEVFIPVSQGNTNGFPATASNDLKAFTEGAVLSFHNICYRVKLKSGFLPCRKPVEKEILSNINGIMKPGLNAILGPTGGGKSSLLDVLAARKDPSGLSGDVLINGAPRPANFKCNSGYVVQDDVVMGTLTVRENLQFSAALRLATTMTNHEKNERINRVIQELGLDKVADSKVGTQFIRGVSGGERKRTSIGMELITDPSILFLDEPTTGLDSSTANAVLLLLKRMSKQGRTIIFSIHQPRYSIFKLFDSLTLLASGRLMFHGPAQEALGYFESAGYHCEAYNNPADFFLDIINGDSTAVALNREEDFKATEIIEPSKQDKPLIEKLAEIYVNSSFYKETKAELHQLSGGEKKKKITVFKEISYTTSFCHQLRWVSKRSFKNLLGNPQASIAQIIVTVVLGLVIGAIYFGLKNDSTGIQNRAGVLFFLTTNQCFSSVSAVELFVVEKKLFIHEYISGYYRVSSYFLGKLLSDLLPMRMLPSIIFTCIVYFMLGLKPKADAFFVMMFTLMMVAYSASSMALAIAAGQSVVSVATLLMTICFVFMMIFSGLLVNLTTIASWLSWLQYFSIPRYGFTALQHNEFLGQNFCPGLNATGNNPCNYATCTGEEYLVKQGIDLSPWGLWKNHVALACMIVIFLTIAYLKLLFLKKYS
Method: (§2) To the compounds available internally, in vitro efflux ratios for MDR1 and BCRP were determined by the following procedure (Supplemental Table 2). Test compound stock solutions in dimethyl sulfoxide (DMSO) were diluted in transport buffer (Hanks’ balanced salt solution (HBSS) with 10 mM HEPES, pH 7.4) to a concentration of 1 μM (DMSO < 1%) and applied to the apical or basolateral side of a cell monolayer derived from Madin-Darby canine kidney (MDCK)-MDR1 and MDCK-BCRP cells. Permeation of the test compounds from apical to basolateral (A to B) direction or B to A direction was measured in duplicate. The plate was incubated for 1 h in a CO2 incubator at 37±1°C with 5% CO2 at saturated humidity without shaking. In addition, the efflux ratio of each compound was also determined. Test and reference compounds were quantified by LC-MS/MS analysis based on the peak area ratio of analyte/internal standard.
(§3) The apparent permeability coefficient Papp (cm/s) was calculated by using Eq. 1: 1 Papp=dCr/dt×Vr/A×C0 where dCr/dt is the cumulative concentration of the compound in the receiver chamber as a function of time (μM/s); Vr is the volume of the solution in the receiver chamber (0.075 mL on the apical side, 0.25 mL on the basolateral side); A is the surface area for transport, i.e., 0.0804 cm^2 for the area of the monolayer; and C0 is the initial concentration (μM) in the donor chamber.
(§4) The efflux ratio was calculated using Eq. 2: 2 Efflux ratio=Papp,BtoA/Papp,AtoB

MDR1 = MDR1 (Homo sapiens, UniProt P08183); experiment: in vitro; conditions: dog, MDCK-MDR1, pH 7.4
Chain of MDR1 (P08183 whole entry): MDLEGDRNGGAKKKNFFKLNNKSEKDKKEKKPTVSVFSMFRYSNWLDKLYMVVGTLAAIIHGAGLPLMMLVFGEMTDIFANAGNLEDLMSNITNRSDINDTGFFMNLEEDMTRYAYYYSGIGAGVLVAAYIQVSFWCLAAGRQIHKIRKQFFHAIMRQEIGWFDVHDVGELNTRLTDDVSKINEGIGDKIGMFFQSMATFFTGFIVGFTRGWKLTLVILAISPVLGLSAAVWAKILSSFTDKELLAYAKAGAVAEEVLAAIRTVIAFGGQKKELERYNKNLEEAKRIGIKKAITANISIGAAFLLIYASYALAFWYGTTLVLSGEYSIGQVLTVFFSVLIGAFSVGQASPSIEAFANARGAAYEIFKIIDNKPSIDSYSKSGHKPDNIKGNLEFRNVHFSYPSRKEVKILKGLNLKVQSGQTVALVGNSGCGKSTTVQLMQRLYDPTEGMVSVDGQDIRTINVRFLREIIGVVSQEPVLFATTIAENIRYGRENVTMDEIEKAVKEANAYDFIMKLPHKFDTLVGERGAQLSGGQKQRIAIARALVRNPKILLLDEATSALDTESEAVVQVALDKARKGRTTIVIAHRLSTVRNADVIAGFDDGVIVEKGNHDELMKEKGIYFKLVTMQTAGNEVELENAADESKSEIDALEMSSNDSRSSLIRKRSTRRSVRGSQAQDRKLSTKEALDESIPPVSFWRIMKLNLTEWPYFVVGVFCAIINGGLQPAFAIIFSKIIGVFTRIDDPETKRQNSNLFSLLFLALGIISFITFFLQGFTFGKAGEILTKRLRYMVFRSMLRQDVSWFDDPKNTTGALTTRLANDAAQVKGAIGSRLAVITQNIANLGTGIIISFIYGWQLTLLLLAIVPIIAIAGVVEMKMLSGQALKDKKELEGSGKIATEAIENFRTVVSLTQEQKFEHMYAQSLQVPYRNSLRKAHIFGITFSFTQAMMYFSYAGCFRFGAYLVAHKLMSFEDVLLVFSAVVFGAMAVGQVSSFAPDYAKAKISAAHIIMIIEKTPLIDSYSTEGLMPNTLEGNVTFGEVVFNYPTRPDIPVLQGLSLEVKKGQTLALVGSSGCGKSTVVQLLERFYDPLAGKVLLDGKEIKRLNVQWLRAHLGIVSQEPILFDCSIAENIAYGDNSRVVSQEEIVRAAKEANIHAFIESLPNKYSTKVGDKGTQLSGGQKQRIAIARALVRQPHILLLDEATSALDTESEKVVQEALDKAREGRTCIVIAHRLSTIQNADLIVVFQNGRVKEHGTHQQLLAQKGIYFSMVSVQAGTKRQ
Method: as §2, §3, §4

[3] = cited from earlier work; remark: listed apart in the source
[4] = cited from earlier work; remark: listed apart in the source
[5] = monkey, *9 ref Nagaya et al. (19)
[6] = monkey, *8 ref Uchida et al. (31)

| SMILES | efflux ratio at 1 h, 1 μM (BCRP) | efflux ratio at 1 h, 1 μM (MDR1) | Kp uu (in vivo; Kp,uu,CSF Rat) | Kp uu (in vivo; Kp,uu,brain Rat) | Kp,uu,CSF Rat ([3]; *4 ref Friden et al. (21)) | Kp,uu,CSF Monkey [4, 5] | Kp,uu,brain Monkey [4, 5] | Kp,uu,CSF Rat ([3]; *7 ref Kodaira et al. (20)) | Kp,uu,brain Rat ([3]; *7 ref Kodaira et al. (20)) | also measured |
| --- | --- | --- | --- | --- | --- | --- | --- | --- | --- | --- |
| CNC(=O)c1cc(Oc2ccc(NC(=O)Nc3ccc(Cl)c(C(F)(F)F)c3)cc2)ccn1 [Sorafenib] | – | – | – | – | – | – | – | – | – | Kp,uu,CSF Rat (in vivo): 2.06; Kp,uu,brain Rat (in vivo): 0.0228; Kp,uu,CSF Monkey ([1]; monkey, lumbar CSF, *1 data internally obtained): 0.0798; Kp,uu,brain Monkey ([1]; monkey, *1 data internally obtained): 0.0199 |
| Nc1ccc(S(=O)(=O)c2ccc(N)cc2)cc1 [Dapsone] | 0.8 | 1.3 | – | – | – | – | – | – | – | Kp,uu,CSF Human ([2]; *11 ref Togashi et al. (29)): 1.56; Kp uu at 6 h ([1]; Kp,uu,CSF Monkey): 0.661; Kp uu at 6 h ([1]; Kp,uu,brain Monkey): 1.02 |
| C=C[C@H]1C[N@@]2CC[C@H]1C[C@@H]2[C@@H](O)c1ccnc2ccc(OC)cc12 [Quinidine] | 0.9 | – | 0.419 | 0.0359 | – | 0.169 | 0.0658 | 0.0911 | 0.026 | Kp,uu,brain Monkey [4, 6]: 0.0744 |
| Cc1cc(=O)n(-c2ccccc2)n1C [Antipyrine] | 1 | 0.9 | 0.944 | 0.857 | – | – | – | – | – | Kp,uu,CSF Monkey ([4]; cynomolgus monkey, in vivo): 1.05; Kp,uu,brain Monkey ([4]; cynomolgus monkey, in vivo): 0.857 |
| CN(C)C(=O)C(CCN1CCC(O)(c2ccc(Cl)cc2)CC1)(c1ccccc1)c1ccccc1 [Loperamide] | 0.97 | 92 | – | – | 0.037 | – | – | 0.038 | 0.00896 | Kp,uu,brain Rat ([3]; *3 ref Summerfield et al. (25)): 0.024; Kp,uu,brain Rat ([3]; *4 ref Friden et al. (21)): 0.007; Kp,uu,brain Monkey [4, 6]: 0.04 |

The next lines start with results.

| efflux ratio at 1 h, 1 μM (BCRP) | efflux ratio at 1 h, 1 μM (MDR1) | Kp uu (in vivo; Kp,uu,CSF Rat) | Kp uu (in vivo; Kp,uu,brain Rat) | SMILES | Kp,uu,CSF Rat ([3]; *4 ref Friden et al. (21)) | Kp,uu,CSF Monkey [4, 5] | Kp,uu,brain Monkey [4, 5] | Kp,uu,CSF Rat ([3]; *7 ref Kodaira et al. (20)) | Kp,uu,brain Rat ([3]; *7 ref Kodaira et al. (20)) | also measured |
| --- | --- | --- | --- | --- | --- | --- | --- | --- | --- | --- |
| 1.1 | 1 | – | – | Nc1c2c(nc3ccccc13)CCCC2 [Tacrine] | – | – | – | – | – | Kp,uu,CSF Human ([2]; in vivo): 0.74; Kp,uu,CSF Rat ([3]; in vivo): 0.67 |
| 1 | – | – | – | CC(C)NCC(O)COc1cccc2ccccc12 (centres unmarked) [Propranolol] | 0.49 | 0.461 | 0.947 | – | – | Kp,uu,CSF Human ([2]; *4 ref Friden et al. (21)): 0.42 |
| 1.2 | 5.7 | – | – | CC(C)NCC(O)COc1cccc2[nH]ccc12 (centres unmarked) [Pindolol] | 0.11 | – | – | – | – | Kp,uu,CSF Human ([2]; *4 ref Friden et al. (21)): 0.52; Kp,uu,brain Rat ([3]; *4 ref Friden et al. (21)): 0.500 |
| 0.9 | 1.3 | 0.752 | 0.8 | NC(=O)N1c2ccccc2C=Cc2ccccc21 [Carbamazepine] | – | 1.19 | 1.27 | 0.535 | 0.771 | Kp,uu,brain Human ([2]; *3 ref Summerfield et al. (25)): 0.55; Kp,uu,CSF Human ([2]; *10 ref Gatti et al. (28)): 1.00; Kp,uu,brain Rat ([3]; *3 ref Summerfield et al. (25)): 0.39 |

Reference: paper PMC8175309, “Translational CNS Steady-State Drug Disposition Model in Rats, Monkeys, and Humans for Quantitative Prediction of Brain-to-Plasma and Cerebrospinal Fluid-to-Plasma Unbound Concentration Ratios” (The AAPS Journal, 2021)
